Source: US20130164847A1, “USE OF A PROTEIN TYROSINE KINASE INHIBITOR FOR INDUCING THE DIFFERENTIATION OF MESENCHYMAL STEM CELLS INTO CARDIOGENIC CELLS” (PHARMICELL. CO., LTD., priority 2010, published 2013)

Tested on: mesenchymal stem cells
Assay: Sandwich ELISA of cTnT after ex vivo differentiation of rat MSCs by PTK inhibitor treatment
Type: cell-based
Conditions: rat MSCs cultured 9 days with 1 μM or 10 μM compound
Procedure: For the second subculture, MSCs were dispensed on a 60 mm plate at 2×10^5 cells/ml using the identical medium as above, treated with N-(3-bromophenyl)-6,7-diethoxyquinazoline-4-amine (Sigma), a protein tyrosine kinase (PTK) inhibitor, at a final concentration of 1 μM or 10 μM. The cells were cultured for 9 days, wherein the medium was replaced once every three days with a fresh medium containing the aforementioned compound.
100 ng of capture antibodies were bound to polyvinyl chloride (PVC) and microtiter high-binding plate (96 wells) at 4° C. overnight. The plate was washed twice with PBS, capture antibodies were blocked with PBS containing 5% BSA overnight under moist air at the room temperature. The plate was washed twice with PBS, and 5 ug of cell lysates together with blocking buffer was added to each well. The plate was incubated at 37° C. for 1.5 hours. The plate was washed 4 times with PBS containing 0.02% Tween-20. Upon adding detector antibodies, the plate was incubated under moist air and the room temperature for 2 hours, and washed 4 times with PBS containing 0.02% Tween-20. […] After 10 minutes, the reaction was stopped by adding 25 ul of 0.1M H2SO4, then the absorbance at 450 nm was immediately measured with an ELISA plate reader (Bio-Rad). […]

## CCOc1cc2ncnc(Nc3cccc(Br)c3)c2cc1OCC [compound #23, N-(3-bromophenyl)-6,7-diethoxyquinazoline-4-amine]
  differentiation into myocardial cells (sandwich ELISA, FIG. 13): increases depending on the concentration
Sandwich ELISA, FIG. 13
  expression ratio of cardiac troponin T (cTnT): increasing expression ratio of cardiac troponin T (cTnT) by the method dependent on dosage
